This is an account of results in paper PMC11055893, “Cyclodipeptide oxidase is an enzyme filament” (Nature Communications, 2024).

For data set [1], the target named is T1, AlbAB (Streptomyces noursei, UniProt Q8GED8+Q8GED9, Q8GED9:S77A).
T1 construct: gene albA; AlbA ca. 21 kDa, AlbB ca. 11 kDa; filament of alternating AlbA2 and AlbB2 dimers; FMN covalent at AlbA C115
Put plainly: coupled horseradish peroxidase H2O2 fluorescence assay, Michaelis-Menten fit. The format is biochemical. As to conditions: 100 mM Tris pH 8.0, 30 °C, O2, 1 mM 4-hydroxyphenylacetic acid, 0.1 U HRP, 0.25 µM AlbAB.

Data set [2] concerns the molecule itself. The experiment in a line: SEC + other: dynamic light scattering; DLS at 25 °C, AlbAB 0.1 mg/mL and AlbB 1 mg/mL in 150 mM NaCl, 20 mM Tris pH 7.5; size exclusion chromatography. (In general: SEC sorts molecules by how far they enter the pores of the column.)

T1 sequence (Q8GED9 24-219 S77A, one chain of several): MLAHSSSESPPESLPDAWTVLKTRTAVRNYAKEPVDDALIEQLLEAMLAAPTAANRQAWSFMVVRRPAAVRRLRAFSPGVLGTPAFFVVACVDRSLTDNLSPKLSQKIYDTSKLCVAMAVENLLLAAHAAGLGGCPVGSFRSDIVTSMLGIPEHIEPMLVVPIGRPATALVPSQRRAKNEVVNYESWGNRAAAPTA

`CC(C)C[C@@H]1NC(=O)[C@H](Cc2ccccc2)NC1=O` [cyclo(L-Phe-L-Leu)]: in data set [1], the KM entry is “velocities for AlbAB and AlbA-S54A/AlbB were then fit to a Michaelis-Menton non-linear regression model”.

B1: AlbB expressed alone (His tag removed) (natural protein, Streptomyces noursei)
chain: MNPGETVLPPQLREEIALLAVYLLSSGRGLLEEPADYGIYRCTDGARRALQLLDEHGGSTARLTAVRERLDEVMFAPMGEDRDMGAILDDLCRQMADALPEIETP
notes: AlbB, Streptomyces noursei; gene PCR-amplified from the AlbAB-encoding pGM1190 vector into pETDuet-1 multiple cloning site 2, with a TEV site to remove the tag; also called His-tagged AlbB; source: E. coli BL21 (DE3), pETDuet-1, purified (His-Trap, TEV cleavage, second His-Trap); not shown: His tag, N-terminal, cleaved
In the case of B1, in data set [2], the stoichiometry N – broadly, the number of molecules, sites or subunits per partner or assembly – came out at 2.
